Source: patent US9745289B2, “Aldosterone synthase inhibitors” (Boehringer Ingelheim International GmbH, priority 2014, dated 2017)
Several values for one entry are separate records, joined by “and”; a condition that tells them apart may be missing. Equal entries are not always repeated.

What follows are compounds tested against cortisol synthase (CYP11B1) (Macaca fascicularis, UniProt A0A2K5ULY1) (assay: Inhibition of Cortisol Synthesis). Details: cynomolgus adrenal gland mitochondria; 150 units of CYP11B1, 11-deoxycortisol as substrate, cortisol measured as product.
Format: biochemical, cynomolgus monkey
Summary of the method: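 Cynomolgus adrenal mitochondria as enzyme source (1 unit = 1 pmol product/h); 150 units CYP11B1 with 11-deoxycortisol substrate in 100 mM potassium phosphate pH 7.4, 1% DMSO, started with 1 mM NADPH, 90 min at 37 °C. Cortisol quantified by mass spectrometry; no-NADPH blank as 0%, no-compound as 100% activity.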

| IC50 | Structure (SMILES) |
| --- | --- |
| 280 nM | CCOc1cncc(C2COc3c(cccc3C(N)=O)O2)c1 (single isomer, unassigned) [Cpd 45B, 2-(5-ethoxy-pyridin-3-yl)-2,3-dihydro-benzo[1,4]dioxine-5-carboxylic acid amide] |
| 7000 nM | NC(=O)c1cccc2c1OCC(c1cncc(O[C@@H]3CCOC3)c1)O2 (single isomer, unassigned) [Cpd 46A] |
| 4200 nM | NC(=O)c1cccc2c1OCC(c1cncc(O[C@@H]3CCOC3)c1)O2 (single isomer, unassigned) [Cpd 46B] |
| 8500 nM | NC(=O)c1cccc2c1OCC(c1cncc(OC3CCOCC3)c1)O2 (single isomer, unassigned) [Cpd 47A, 2-[5-(Tetrahydro-pyran-4-yloxy)-pyridin-3-yl]-2,3-dihydro-benzo[1,4]dioxine-5-carboxylic acid amide] |
| 1200 nM | NC(=O)c1cccc2c1OCC(c1cncc(OC3CCOCC3)c1)O2 (single isomer, unassigned) [Cpd 47B, 2-[5-(Tetrahydro-pyran-4-yloxy)-pyridin-3-yl]-2,3-dihydro-benzo[1,4]dioxine-5-carboxylic acid amide] |
| 3100 nM | CC(C)C(=O)N1CCC(Oc2cncc(C3COc4c(cccc4C(N)=O)O3)c2)CC1 (single isomer, unassigned) [Cpd 48A, 2-[5-(1-isobutyryl-piperidin-4-yloxy)-pyridin-3-yl]-2,3-dihydro-benzo[1,4]dioxine-5-carboxylic acid amide] |
| 240 nM | CC(C)C(=O)N1CCC(Oc2cncc(C3COc4c(cccc4C(N)=O)O3)c2)CC1 (single isomer, unassigned) [Cpd 48B, 2-[5-(1-isobutyryl-piperidin-4-yloxy)-pyridin-3-yl]-2,3-dihydro-benzo[1,4]dioxine-5-carboxylic acid amide] |

The next lines start with the compound.

| Structure (SMILES) | IC50 |
| --- | --- |
| CCOc1cncc(C2COc3c(cccc3C(N)=O)O2)c1 (single isomer, unassigned) [Cpd 45A, 2-(5-ethoxy-pyridin-3-yl)-2,3-dihydro-benzo[1,4]dioxine-5-carboxylic acid amide] | 210 nM |
| NC(=O)c1cccc2c1OCC(c1cncc(C(O)C(F)(F)F)c1)O2 (single isomer, unassigned) [Cpd 49AA, 2-[5-(2,2,2-Trifluoro-1-hydroxy-ethyl)-pyridin-3-yl]-2,3-dihydro-benzo[1,4]dioxine-5-carboxylic acid amide] | 3200 nM |
| NC(=O)c1cccc2c1OCC(c1cncc(C(O)C(F)(F)F)c1)O2 (single isomer, unassigned) [Cpd 49AB, 2-[5-(2,2,2-Trifluoro-1-hydroxy-ethyl)-pyridin-3-yl]-2,3-dihydro-benzo[1,4]dioxine-5-carboxylic acid amide] | 1100 nM |
| NC(=O)c1cccc2c1OCC(c1cncc(C(O)C(F)(F)F)c1)O2 (single isomer, unassigned) [Cpd 49BA, 2-[5-(2,2,2-Trifluoro-1-hydroxy-ethyl)-pyridin-3-yl]-2,3-dihydro-benzo[1,4]dioxine-5-carboxylic acid amide] | 2500 nM and 1100 nM |
| N#Cc1cccc2c1OCC(c1cncc(C3(O)CCOCC3)c1)O2 (single isomer, unassigned) [Cpd 50B, 2-[5-(4-Hydroxy-tetrahydro-pyran-4-yl)-pyridin-3-yl]-2,3-dihydro-benzo[1,4]dioxine-5-carbonitrile] | 3300 nM |
| NC(=O)c1cccc2c1OCC(c1cncc(F)c1)O2 (single isomer, unassigned) [Cpd 51A, 2-(5-Fluoro-pyridin-3-yl)-2,3-dihydro-benzo[1,4]dioxine-5-carboxylic acid amide] | 1200 nM |
| NC(=O)c1cccc2c1OCC(c1cncc(F)c1)O2 (single isomer, unassigned) [Cpd 51B, 2-(5-Fluoro-pyridin-3-yl)-2,3-dihydro-benzo[1,4]dioxine-5-carboxylic acid amide] | 20000 nM |
| NC(=O)c1cccc2c1OCC(c1cncc3c1CCC3O)O2 (single isomer, unassigned) [Cpd 52AA, 2-(7-Hydroxy-6,7-dihydro-5H-[2]pyrindin-4-yl)-2,3-dihydro-benzo[1,4]dioxine-5-carboxylic acid amide] | 4100 nM |
